Laboratory results as given in patent US6958358B2, “Inhibitors of cruzipain and other cysteine proteases” (Amura Therapeutics Limited, priority 2001, dated 2005).

How the values were obtained:
Bovine Cathepsin S = target: T1, Bovine Cathepsin S (Bos taurus, UniProt P25326); experiment: Cathepsin peptidase activity assay, bovine cathepsin S; type: biochemical; settings: pH 6.5; boc-Val-Leu-Lys-AMC; 25±1° C.
T1 construct: purchased CN Biosciences
Description: (§1) Assay protocols were based on literature precedent (Table1; Barrett, A. J., Rawlings, N. D. and Woessner, J. F., 1998, Handbook of Proteolytic Enzymes, Academic Press, London and references therein) and modified as required to suit local assay protocols. Enzyme was added as required to initiate the reaction and the activity, as judged by the change in fluorescence upon conversion of substrate to product, was monitored over time. All assays were carried out at 25±1° C.
(§2) Bovine cathepsin S, human cathepsin L, human cathepsin H and human cathepsin B were obtained from CN Biosciences. Recombinant human cathepsin S, human cathepsin K and human cathepsin X were obtained from Dr. Boris Turk (Josef Stefan Institute, Ljubljana, Slovenia). Unless otherwise stated, all peptidase activity assays were carried out in 10 mM bis-tris-propane (BTP), pH 6.5 containing 1 mM […], 5 mM 2-mercaptoethanol and 1 mM CaCl2. Human cathepsin H activity assays were carried out in 10 mM BTP pH 6.5, 142 mM […], 1 mM CaCl2, 1 mM EDTA, 1 mM DTT, 0.035 mM Zwittergent 3-16. […] The rate of conversion of substrate to product was derived from the slope of the increase in fluorescence monitored continuously over time.
(§3) The apparent inhibition constant (Ki) for each compound was determined on the basis that inhibition was reversible and occurred by a pure-competitive mechanism. The Ki values were calculated, from the dependence of enzyme activity as a function of inhibitor concentration, by direct regression analysis (Prism v 3.02) using Equation 2 (Cornish-Bowden, A., 1995.). […]
(§4) In situations where the apparent dissociation constant (Ki^app) approached the enzyme concentrations, the Ki^app values were calculated using a quadratic solution in the form described by Equation 3 (Morrison, J. F. Trends Biochem. Sci., 7, 102-105, 1982; Morrison, J. F. Biochim. Biophys. Acta, 185, 269-286, 1969; Stone, S. R. and Hofsteenge, J. Biochemistry, 25, 4622-4628, 1986). […]

Human Cathepsin K = target: T2, Human Cathepsin K (Homo sapiens, UniProt P43235); experiment: Cathepsin peptidase activity assay, human cathepsin K; type: biochemical; settings: pH 5.5; Z-Leu-Arg-AMC; 25±1° C.
T2 construct: Dr. Boris Turk (Josef Stefan Institute, Ljubljana, Slovenia), obtained from an academic laboratory, not a commercial vendor
T2 sequence (P43235 115-329): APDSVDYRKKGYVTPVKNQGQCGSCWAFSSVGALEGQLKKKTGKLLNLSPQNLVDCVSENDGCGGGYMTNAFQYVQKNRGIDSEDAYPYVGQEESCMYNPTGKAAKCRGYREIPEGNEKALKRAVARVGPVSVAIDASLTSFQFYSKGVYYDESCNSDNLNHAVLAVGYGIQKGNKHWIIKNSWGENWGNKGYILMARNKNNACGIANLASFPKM
Description: as §1, §2, §3, §4

Cruzipain = target: T3, Cruzipain (Trypanosoma cruzi, UniProt P25779); experiment: Trypanosoma cruzi cruzipain peptidase activity assay; type: biochemical; settings: wild-type cruzipain from T. cruzi Dm28 epimastigotes; pH 6.75; 25±1° C.
T3 construct: Wild-type cruzipain, derived from Trypanosoma cruzi Dm28 epimastigotes; tissue Dr. Julio Scharfstein (Instituto de Biofisica Carlos Chagas Filho, Universidade Federal do Rio de Janeiro); host or cells: Trypanosoma cruzi Dm28 epimastigotes
Description: as §1
Wild-type cruzipain, derived from Trypanosoma cruzi Dm28 epimastigotes, was obtained from Dr. Julio Scharfstein (Instituto de Biofisica Carlos Chagas Filho, Universidade Federal do Rio de Janeiro, Rio de Janeiro, Brazil). Activity assays were carried out in 100 mM sodium phosphate, pH 6.75 containing 1 mM EDTA and 10 mM L-cysteine using […] enzyme. Ac-Phe-Arg-AMC (KM^app≈12 μM) and D-Val-Leu-Lys-AMC (KM^app≈4 μM) were used as the substrates. Routinely, Ac-FR-AMC was used at a concentration equivalent to KM^app and D-Val-Leu-Lys-AMC was used at a concentration of 25 μM. The rate of conversion of substrate to product was derived from the slope of the increase in fluorescence monitored continuously over time.
as §3, with “1995.). [formula]” for “1995.).”
as §4

Human Cathepsin L = target: T4, Human Cathepsin L (Homo sapiens, UniProt P07711); experiment: Cathepsin peptidase activity assay, human cathepsin L; type: biochemical; settings: pH 6.5; Ac-Phe-Arg-AMC; 25±1° C.
T4 construct: purchased CN Biosciences
Description: as §1, §2, §3, §4

[1] = tested on: Trypanosoma cruzi infection; settings: cited from earlier work
Trypanosoma cruzi = settings: added to Trypanosoma cruzi-infected mammalian cell cultures; cited from earlier work

T3 sequence (P25779 123-467): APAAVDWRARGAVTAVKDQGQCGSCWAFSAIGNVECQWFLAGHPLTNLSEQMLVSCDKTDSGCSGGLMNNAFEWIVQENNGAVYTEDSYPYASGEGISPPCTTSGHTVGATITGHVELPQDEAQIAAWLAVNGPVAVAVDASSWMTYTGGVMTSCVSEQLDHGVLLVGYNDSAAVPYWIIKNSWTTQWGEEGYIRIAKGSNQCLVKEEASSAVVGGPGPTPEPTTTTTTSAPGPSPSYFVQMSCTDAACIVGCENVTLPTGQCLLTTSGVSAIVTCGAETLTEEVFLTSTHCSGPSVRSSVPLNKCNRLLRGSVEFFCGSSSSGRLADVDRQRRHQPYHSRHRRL
T1 sequence (P25326 115-331): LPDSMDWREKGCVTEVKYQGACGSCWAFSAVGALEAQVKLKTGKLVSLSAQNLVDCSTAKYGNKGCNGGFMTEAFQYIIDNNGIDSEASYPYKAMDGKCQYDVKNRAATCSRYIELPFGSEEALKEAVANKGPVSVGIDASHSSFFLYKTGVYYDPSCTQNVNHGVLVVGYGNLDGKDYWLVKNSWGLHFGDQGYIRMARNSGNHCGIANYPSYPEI
T4 sequence (P07711 114-333): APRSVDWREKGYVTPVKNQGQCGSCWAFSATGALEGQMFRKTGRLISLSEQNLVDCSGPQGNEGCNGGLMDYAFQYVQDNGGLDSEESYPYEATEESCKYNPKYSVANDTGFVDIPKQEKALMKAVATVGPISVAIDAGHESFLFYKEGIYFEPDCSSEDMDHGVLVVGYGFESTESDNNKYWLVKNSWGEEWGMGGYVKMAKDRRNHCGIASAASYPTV

Row | SMILES | Ki (Bovine Cathepsin S) | Ki (Human Cathepsin K) | Ki (Cruzipain) | Ki (Human Cathepsin L) | cure during the acute phase of infection [1] | effect on replication and differentiation of the parasite (Trypanosoma cruzi)
1 | O=C(N[C@@H](CC1CCCCC1)C(=O)N[C@]12CCC[C@H]1OCC2=O)c1ccsc1 [Example 7, (3aR, 6aR) Thiophene-3-carboxylic acid [2-cyclohexyl-1S-(3-oxo-hexahydrocyclopenta[b]furan-3a-ylcarbamoyl)ethyl]amide] | < 2 µM | > 50 µM | > 50 µM | > 25 µM | – | –
2 | CC(C)C[C@H](NC(=O)c1cc2ccccc2s1)C(=O)N[C@]12CCC[C@H]1OCC2=O [Example 6, (3aR, 6aR) Benzo[b]thiophene-2-carboxylic acid [3-methyl-1S-(3-oxo-hexahydrocyclopenta[b]furan-3a-ylcarbamoyl)butyl]amide] | > 25 µM | < 2 µM | > 20 µM | > 10 µM | – | –
3 | O=C(Cn1ccnc1[N+](=O)[O-])NCc1ccccc1 [benznidazole] | – | – | – | – | ~60% | –
4 | CC(NC(=O)C(Cc1ccccc1)NC(=O)OCc1ccccc1)C(=O)CF (stereo not drawn) [Z-Phe-Ala-FMK] | – | – | – | – | – | blocked replication and differentiation of the parasite
5 | CC(C)(C)c1ccc(C(=O)N[C@@H](Cc2ccc(O)cc2)C(=O)N[C@]23CCC[C@H]2OCC3=O)cc1 [Example 1, (3aR, 6aR) 4-tert-Butyl-N-[2-(4-hydroxyphenyl)-1S-(3-oxo-hexahydrocyclopenta[b]furan-3a-ylcarbamoyl)-ethyl]benzamide] | > 50 µM | > 100 µM | < 2 µM | > 20 µM | – | –
